In article PMC8156206, “Novel N,N′-Disubstituted Selenoureas as Potential Antioxidant and Cytotoxic Agents” (Antioxidants, 2021):
Where two headings read alike, the source gives them in different places.

What was measured:
HCT-116 cells (colon) = assay: MTT cell viability assay, HCT-116; format: cell-based; conditions: 48 h, MTT, mean ± SD, read-out: IC50 HCT-116 (colon)
Procedure: (§1) Cell lines were purchased from the American Type Culture Collection (ATCC). MCF-7, HTB-54, BEAS-2B and 184B5 cell lines were grown in RPMI 1640 medium (Gibco) supplemented with 10% fetal bovine serum (FBS; Gibco), 100 units/mL penicillin, and […] streptomycin (Gibco). HT-29 and HCT-116 cell lines was cultured in McCoy’s 5A (Gibco), 10% FBS, 100 units/mL penicillin, and 100 μg/mL streptomycin. Cells were maintained at 37 °C and 5% CO2. Culture medium was replaced every three days.
(§2) A cell viability assay of each compound was carried out using an MTT assay. Each selenourea was dissolved in dimethyl sulfoxide (DMSO) at a concentration of 0.01 M. Serial dilutions were prepared with non-supplemented culture medium. Cytotoxic activity of each selenourea was determined at two different concentrations (10 and 50 µM) in MCF-7, HTB-54, and HT-29 cells. In addition, selected compounds were tested at seven different concentrations (0.1, 1, 5, 10, 25, 50, 100 µM) on MCF-7, HT-29, HCT-116, HTB-54, 184B5, and BEAS-2B cells. The number of passages before defrosting the cells was 3, and they were kept under culture up to a maximum of 15.
(§3) Briefly, 1 × 10^4 cells/well were grown in 96-well plates for 24 h. Then, these cells were incubated with either DMSO (negative control) at 5 µM or a different concentration of each tested selenourea for 48 h. A volume of 20 µL of MTT was added 150 min before the termination point to measure cellular viability. After this time, culture medium was removed. The resultant formazan crystals were dissolved in 50 µL of DMSO, and absorbance was measured at 570 nm. Results are expressed as IC50, the half maximal inhibitory concentration. This value was calculated using GraphPad Prism 7 software by nonlinear curve fitting. Furthermore, the selectivity index (SI) was calculated as the ratio of the IC50 values determined for the non-malignant and the tumoral cells (IC50 (184B5)/IC50 (MCF-7) or (IC50 (BEAS-2B)/IC50 (HTB-54). Data were obtained from at least three independent experiments performed in triplicates.

[1] = test system: MCF-7 cells (breast adenocarcinoma); conditions: cited from earlier work
[2] = test system: HTB-54 cells (lung adenocarcinoma); set-up: method as in PMID 22397496; conditions: reference drug, literature value; cited from earlier work
[3] = test system: HT-29 cells (colon carcinoma); set-up: method as in PMID 32801055; conditions: reference drug, literature value; cited from earlier work
[4] = DPPH radical scavenging assay; conditions: 0.03 mg/mL, time-point 0 min
Procedure: (§4) From all the methods available for the prediction of the antioxidant properties, DPPH^● and ABTS^●+ assays were chosen according to their simplicity, accessibility, and effectiveness for a fast prediction of radical scavenging activities in vitro. The radical scavenging capacity of the novel selenoureas was determined by DPPH^● and ABTS^●^+ assays. Measurements were recorded on a BioTeck PowerWave XS spectrophotometer (BioTeck Instruments, Winooski (VT), USA) and the data were collected using KCJunior software (BioTeck Instruments, Winooski (VT), USA).
A DPPH assay was performed, as described by Svinyarov. Stock solutions of 1 mg/mL were initially prepared for each selenourea in methanol and this solution was used for the preparation of the different concentrations employed in the assay. Ascorbic acid (Asc) was used as positive control due to the literature reports that this derivative is a potent antioxidant and radical scavenger. A volume of 100 µL from a previously prepared stock solution (preserved in dark and daily prepared) of DPPH (100 µM) in methanol were added to 100 µL of the methanolic selenoureas solutions prepared previously, and the antioxidant activity these compounds was assessed by its ability to decolorize DPPH● radical (purple color in methanol) to DPPHH (colorless). Thus, radical scavenging activity was estimated by the decrease in the absorbance at 517 nm. Determinations were recorded at different time-points. All the measurements were carried out in triplicate. Results are expressed as the percentage of the radicals scavenged, calculated using the following formula:(1) % DPPH radical scavenging=Acontrol − Asample/Acontrol × 100 where Acontrol refers to the absorbance of the negative control and Asample refers to the absorbance of the tested compounds. Results are expressed as percentage of DPPH radical scavenging ± SD.
In order to determine the radical scavenging of these newly synthesized selenourea derivatives, the DPPH assay was firstly employed. Measurements were performed at four different concentrations ranging from 0.0003 to 0.03 mg/mL, and collected at time-points between 0 min and 120 min (Figures S81–S100). Results are presented as the percentage of inhibition for DPPH radical scavenging activity.

[5] = test system: MCF-7 cells (breast adenocarcinoma); assay: MTT cell viability assay, MCF-7; format: cell-based, human; conditions: for IC50 / viability at 10 µM / viability at 50 µM: Homo sapiens, MCF7, 48 h, MTT; for IC50: mean ± SD, read-out: IC50 MCF-7 (breast); for viability at 10 µM: MCF-7, 10 µM; for viability at 10 µM / viability at 50 µM: read-out: cell viability, percentage of live cells; for viability at 50 µM: MCF-7, 50 µM; for SI (selectivity index) breast: IC50 (184B5)/IC50 (MCF-7)
Procedure: as §1, §2, §3
(§5) The cytotoxic effects of synthesized compounds were evaluated against three human cancer cell lines: breast adenocarcinoma (MCF-7), lung adenocarcinoma (HTB-54), and colon carcinoma (HT-29), using a 3-[4,5-dimethylthiazol-2-yl]-2,5-diphenyltetrazolium bromide (MTT) assay. Firstly, the compounds were screened at two doses (50 and 10 µM) and after 48 h of treatment. The results are summarized in Figure 4 and are presented as percentages of growth inhibition related to control.

[6] = test system: HTB-54 cells (lung adenocarcinoma); assay: MTT cell viability assay, HTB-54; format: cell-based, human; conditions: for IC50 / viability at 10 µM / viability at 50 µM: Homo sapiens, 48 h, MTT; for IC50: HTB-54, mean ± SD, read-out: IC50 HTB-54 (lung); for viability at 10 µM: HTB-54, 10 µM; for viability at 10 µM / viability at 50 µM: read-out: cell viability, percentage of live cells; for viability at 50 µM: HTB-54, 50 µM; for SI (selectivity index) lung: IC50 (BEAS-2B)/IC50 (HTB-54)
Procedure: as §1, §2, §3, §5

[7] = test system: HT-29 cells (colon carcinoma); assay: MTT cell viability assay, HT-29; format: cell-based; conditions: Homo sapiens, 48 h, MTT; for IC50: HT-29, mean ± SD, read-out: IC50 HT-29 (colon); for viability at 10 µM: HT-29, 10 µM; for viability at 10 µM / viability at 50 µM: read-out: cell viability, percentage of live cells; for viability at 50 µM: HT-29, 50 µM
Procedure: as §1, §2, §3, §5

[8] = test system: 184B5 cells (breast non-malignant derived cell line); assay: MTT cell viability assay, 184B5; format: cell-based; conditions: Homo sapiens, 184B5; 48 h, MTT, mean ± SD; read-out: IC50 184B5 (breast, non-malignant)
Procedure: as §1, §2, §3

[9] = test system: BEAS-2B cells (lung non-malignant derived cell line); assay: MTT cell viability assay, BEAS-2B; format: cell-based; conditions: Homo sapiens, 48 h, mean ± SD
Procedure: as §1, §2, §3

[10] = test system: MCF-7, HTB-54, HT-29 and HCT-116 cancer cell lines; assay: MTT assay, panel of four cancer cell lines; format: cell-based; conditions: MCF-7, HTB-54, HT-29, HCT-116, read-out: IC50 against the four cancer cell lines tested (all the cell lines)
Procedure: as §2, §3
Those derivatives that reduced the growth of the cell lines below 50% at 10 µM in at least one cell line were selected for being evaluated at five concentrations between […] and 100 µM. Ten compounds (1d, 1e, 2a, 2d, 3a, 6a, 6b, 6c, 6d, and 6e) passed this threshold and four of them (1e, 6c, 6d and 6e) in all three cancer cell lines. The data are expressed as IC50 (mean ± SD) in a panel of four cancer cell lines (MCF-7, HTB-54, HT-29, and HCT-116), and are shown in Table 1. Cisplatin was used as a standard drug. […] Additionally, reported IC50 values of a well-known antitumor selenocompound, i.e., sodium selenite (Na2SeO3), were used as reference for comparision with the selected selenoureas.

[11] = ABTS radical scavenging assay; conditions: 0.003 mg/mL, 60 min
Procedure: as §4
As well as DPPH, ABTS radical scavenging assay is a colorimetric method. ABTS (2,2′-azino-bis(3-ethylbenzothiazoline-6-sulfonic acid) was dissolved in deionized water at 1 mg/mL and oxidized to ABTS^●+ with potassium persulfate (2.45 mM final concentration). This oxidation process is not instantaneous, and the reaction mixture was kept in the dark overnight at room temperature. After ABTS^●+ radical was generated, the ABTS^●+ solution was diluted with 50% ethanol until an absorbance of 0.70 ± 0.02 at 734 nm for measurements was achieved. Stock solution of 1 mg/mL in absolute ethanol was prepared for each selenourea, and different dilutions were prepared to reach the final concentration, when 20 µL of this solution were added to 180 µL of the diluted ABTS^●+. The absorbance at 734 nm was recorded using 50% ethanol as blank. Trolox and Asc were used as positive controls. All determinations were carried out in triplicate. Same time intervals as in the DPPH assay were also measured. The ability to scavenge ABTS^●+ was calculated using the following formula:(2) % ABTS radical scavenging=Acontrol − Asample/Acontrol × 100 where Acontrol refers to the absorbance of the negative control and Asample refers to the absorbance of the tested compounds. The results are expressed as percentage of ABTS radical scavenging ± SD.
In order to confirm the antioxidant activity of the selenoureas, we performed an additional ABTS (2,2′-azino-bis(3-ethylbenzothiazoline-6-sulfonic acid) radical scavenging assay. Following the results obtained in the DPPH assay, this experiment was performed at 0.03 and 0.003 mg/mL. Measurements were recorded after 0′, 6′ and 60′ of incubation with ABTS. For comparison purposes, Trolox and ascorbic acid were used as references. The remarkable results are summarized in Figure 3.

Compound	DPPH radical scavenging kinetics [4]	IC50 [5] [µM]	viability at 10 µM [5] [%]	viability at 50 µM [5] [%]	SI (selectivity index) breast [5]	IC50 [6] [µM]	viability at 10 µM [6] [%]	viability at 50 µM [6] [%]	SI (selectivity index) lung [6]	IC50 [7] [µM]	viability at 10 µM [7] [%]	viability at 50 µM [7] [%]	IC50 (HCT-116 cells (colon); Homo sapiens, HCT-116) [µM]	IC50 [8] [µM]	IC50 [9] [µM]	IC50 [10] [µM]	melting point [°C]	ABTS radical scavenging activity compared with Trolox [11]	also measured
N.N.[Cl][Pt][Cl] [Cisplatin]	–	–	–	–	–	–	–	–	–	–	–	–	–	–	–	–	–	–	IC50 (HCT-116 cells (colon)): 2.18 ± 1.58 µM; IC50 ([1]; reference drug, literature value, read-out: IC50 MCF-7 (breast)): 15.2 ± 1.04 µM; IC50 [2]: 13.7 ± 0.83 µM; IC50 [3]: 14.2 ± 0.73 µM
N#Cc1ccc(NC(=[Se])NCc2ccco2)cc1 [Compound 1e]	reaching the maximum activity at time-point 0′	9.96 ± 1.45	48.8	23.4	0.81	9.79 ± 0.07	35.7	9.3	0.61	5.89 ± 1.32	36.2	28.5	9.14 ± 1.14	8.09 ± 1.21	6.01 ± 0.94	< 10	128	–	–
Cc1ccc(NC(=[Se])NC23CC4CC(CC(C4)C2)C3)cc1 [Compound 6b]	–	5.52 ± 1.61	40	9.2	2.21	9.01 ± 2.6	44.2	26.1	0.83	5.67 ± 4.67	51.4	46.8	6.29 ± 0.76	12.2 ± 2.42	7.56 ± 0.19	< 10	169	significant lower radical scavenging activity than Trolox	–
Clc1ccc(NC(=[Se])NC23CC4CC(CC(C4)C2)C3)cc1 [Compound 6d, N´-adamantyl-N-(4-chlorophenyl)selenourea]	–	7.19 ± 1.12	36.6	17.2	2.22	6.56 ± 0.99	22.9	4.4	1.16	8.04 ± 2.17	45.9	23.7	6.95 ± 0.65	16 ± 2.74	7.59 ± 0.53	< 10	177	significant lower radical scavenging activity than Trolox	–
N#Cc1ccc(NC(=[Se])NC23CC4CC(CC(C4)C2)C3)cc1 [Compound 6e, N´-Adamanty-N-(4-cyanophenyl)selenourea]	reaching the maximum activity at time-point 0′	5.47 ± 3.91	44.4	5.7	1.41	6.09 ± 0.75	34	0.3	0.39	4.18 ± 0.46	18.9	3.6	5.43 ± 0.86	7.69 ± 0.31	2.36 ± 0.39	< 10	–	–	–
O=[Se](O)O [sodium selenite]	–	–	–	–	–	–	–	–	–	–	–	–	–	–	–	–	–	–	IC50 ([1]; after 72 h of treatment, read-out: IC50 in MCF-7 cells): 17 µM
